Patent US10139394B2, “Method for controlling cancer metastasis or cancer cell migration by modulating the cellular level of lysyl tRNA synthetase” (Medicinal Bioconvergence Research Center, priority 2008, dated 2018)

Tests used:
KRS and 67LR = experiment: Co-immunoprecipitation of KRS with 67LR; format: cell-based, human; settings: 10 ug/ml of laminin for 1 hr; immunoprecipitation with 67LR antibody; FIG. 6
Description: FIGS. 1 to 6 show specific interaction between human KRS and laminin receptor. In FIG. 1, the interaction between full-length human KRS and 37LRP/p40 was determined by yeast two hybrid assay. AIMP1 and AIMP2, the two components of the multi-ARS complex, were used as positive and negative control, respectively. The positive interaction is indicated by blue colony formation on yeast medium containing X-gal. In FIG. 2, 37LRP was synthesized by in vitro translation in the presence of [^35S] methionine and subjected to pull-down with GST-KRS or GST. 37LRP co-precipitated with GST-KRS was detected by autoradiography. In FIG. 3, The peptide regions of KRS and 37LRP involved in their interaction was determined by yeast two hybrid assay as above. […] Myc-KRS was immunoprecipitated with anti-Myc antibody and co-precipitated 67LR and 37LRP were determined by immunoblotting. […] The cells were separated to cytoplasmic and membrane fractions and immunoprecipitated with anti-Myc antibody and co-precipitation of 37LRP and 67LR was determined by Western blotting. […]
In FIG. 7, A549 cells were treated with laminin (10 ug/ml) and the level of 67LR, 37LRP and KRS was determined by Western blotting at the indicated times. […] Myc-KRS was immunoprecipitated and co-precipitation of 67LR was determined by Western blotting. […]

phosphorylation of KRS = experiment: Laminin-induced phosphorylation of Myc-KRS, immunoprecipitation and immunoblot with anti-p-Thr, -Ser, -Tyr antibodies; format: cell-based, human; settings: Myc-KRS transfected A549 cells; laminin treatment; FIG. 10
Description: In FIG. 7, A549 cells were treated with laminin (10 ug/ml) and the level of 67LR, 37LRP and KRS was determined by Western blotting at the indicated times. Hsp90 and Cadherin were used as markers for cytoplasm and membrane, respectively. In FIG. 8, A549 cells untreated or treated with laminin for 1 h were subjected to immunofluorescence staining with anti-67LR (MLuC5, Santacruz, sc-59732) (red) and -KRS antibodies (green). In FIG. 9, A549 cells were treated with U73122 (U), staurosporin (ST) and LY294002 (LY) that inhibit PLC-gamma, PKC and PI3K, respectively, for 3 hr, then with laminin for 1 hr and checked how these kinase inhibitors would affect the membrane and cytoplasmic level of 67LR and KRS. In FIG. 10, A549 cells were transfected with Myc-KRS and incubated for 24 h. The cells were treated with the indicated chemicals and then with laminin as above. Myc-KRS was immunoprecipitated, and immunoblotted with anti-p-Thr, -Ser, and -Tyr antibodies. In FIG. 11, A549 cells were transfected with Myc-KRS and cultivated for 24 hr. The transfectants were pre-treated with LY294002 for 3 hr and then treated with laminin for 1 h. Myc-KRS was immunoprecipitated and co-precipitation of 67LR was determined by Western blotting. […] EPRS (glutamyl-prolyl-tRNA synthetase) was immunoprecipitated with its specific antibody (AbCam), and co-immunoprecipitation of KRS was determined by Western blotting (upper). […]

binding of 67LR and KRS (KRS and 67LR): increased
Substance: laminin: laminin (Engelbreth-Holm-Swarm murine sarcoma) from Sigma
phosphorylated KRS at threonine and serine (phosphorylation of KRS): increased
